We go through one molecule from US8206941B2, “Three part assay for kinase or phosphatase activity” (Hoffmann-La Roche Inc., priority 2005, dated 2012).

This test concerns the target T1, PDHK2 (recombinant pyruvate dehydrogenase kinase 2) (Homo sapiens, UniProt Q15119).
T1 construct: made in house
Nature of the test: Fast-TR FRET kinase IMAP assay, ATP dependence of the kinase reaction. The class given is biochemical. Particulars: 1 μM Alexa-peptide in the kinase reaction; concentration in the kinase reaction (50 times less in readout); FRET readout 730 (30) nm; FIG. 9; read-out: EC50 of ATP dose response curve. An excerpt: • Substrate peptide (YHGHSMSAPGVSTAC (SEQ ID NO: 1)) from Biosyntan labeled with Alexa Fluor 700 • Phosphorylated substrate peptide (YHGHS(H2PO4)MSAPGVSTAC (SEQ ID NO: 1)) from Biosyntan labeled with Alexa Fluor 700 and Ru(batho) 2bpy • Kinase enzyme: PDHK2 (recombinant pyruvate dehydrogenase kinase 2, expressed according to standard methods) • IMAP™ beads from Molecular Devices (IMAP™ Explorer Kit (IPP) Product # R8062) • Buffer: IMAP™ Binding Buffer 1:5 diluted with dest. H2O+0.05% BSA Instrumentation: • Zeiss plate::vision reader • Plate: Costar 384, UV-NBS • Excitation wavelength: 355 nm • Emission filter: 730 (30) nm, 615 (10) nm
1 μl of the PDHK2 enzyme was diluted in 11 μl kinase buffer (25 mM Hepes pH 7.4, 150 mM NaCl, 18.7 mM MgCl2, 0.4 mM NH4Ac, 0.025% Triton X-100, 1.87 mM DTT). […] For the readout the final substrate concentration was 20 nM (phosphorylated) Alexa-peptide and with the final ATP concentration of 2 μM the FRET signal should be easily detectable (FIG. 5). […]
Note that these were the concentrations in the kinase reaction, in the readout they were 50 times less. […] With higher ATP concentrations the signal decreased again due to free ATP in the readout mixture which bound to the IMAP™ beads and thus decreased the binding capacity of the IMAP™ beads. […]
Background: TR-FRET usually uses a lanthanide donor and a delayed reading to cut background.

A word on the EC50: it is the concentration at which the effect is half-maximal. Consider `Nc1ncnc2c1ncn2[C@@H]1O[C@H](COP(=O)(O)OP(=O)(O)OP(=O)(O)O)[C@@H](O)[C@H]1O` [ATP], for which the concentration giving a half-maximal response (EC50) was found to be 3.6 µM.
